Values after ≈ are worked out from the molar mass of the structure shown. Like-named read-outs stand apart in the source and are kept apart here.
How the values were obtained:
[1] = system: K. pneumoniae clinical isolates; assay: Microdilution broth MIC, K. pneumoniae clinical isolates (Table 1); assay type: cell-based; conditions: Klebsiella pneumoniae
Experimental: (§1) Microdilution Broth Minimum Inhibitory Concentrations (MICs)
(§2) MICs were performed in triplicate in cation adjusted Mueller-Hinton (MH) broth 30 according to CLSI guidelines. Firstly, overnight cultures of E. coli and K. pneumoniae clinical isolates were inoculated into 5 ml MH broth to OD600=0.1 and grown to OD600=0.224 (approximately 1-2×10^8 CFU/ml). These cultures were diluted (3 μl+4997 μl MH) and 100 μl inoculated into each well of a 96-well plate containing 100 μl of serial dilutions of compound 26 (YU253434), ampicillin, ceftazidime, or imipenem. The plates were placed in a 37° C. incubator for 18-20 hours and wells checked for growth.

[2] = system: E. coli clinical isolates; assay: Microdilution broth MIC, E. coli clinical isolates (Table 1); assay type: cell-based; conditions: Escherichia coli, read-out: MIC
Experimental: as §1, §2

E. coli = assay: MIC versus E. coli strains incl. Class B metallo beta lactamases (Table 2); assay type: cell-based; conditions: Escherichia coli
Excerpt: (§3) Tables 2 and 3 show MIC values of compound 26 (YU253434) and 42 YU253911 versus E. coli and P. Aeruginosa strains containing Class B metallo beta lactamases VIM and NDM compared with Meropenem as a standard.

Pseudomonas aeruginosa = assay: MIC versus Pseudomonas aeruginosa strains incl. Class B metallo beta lactamases (Table 3); assay type: cell-based
Excerpt: as §3

[3] = target: Pseudomonas aeruginosa penicillin binding protein 3 (PBP3) (Pseudomonas aeruginosa, UniProt G3XD46); assay: Inhibition of penicillin binding protein 3 (Bocillin based assay); conditions: Pseudomonas aeruginosa PBP3 (FIG. 5)
Sequence of Pseudomonas aeruginosa penicillin binding protein 3 (PBP3) (G3XD46 whole entry): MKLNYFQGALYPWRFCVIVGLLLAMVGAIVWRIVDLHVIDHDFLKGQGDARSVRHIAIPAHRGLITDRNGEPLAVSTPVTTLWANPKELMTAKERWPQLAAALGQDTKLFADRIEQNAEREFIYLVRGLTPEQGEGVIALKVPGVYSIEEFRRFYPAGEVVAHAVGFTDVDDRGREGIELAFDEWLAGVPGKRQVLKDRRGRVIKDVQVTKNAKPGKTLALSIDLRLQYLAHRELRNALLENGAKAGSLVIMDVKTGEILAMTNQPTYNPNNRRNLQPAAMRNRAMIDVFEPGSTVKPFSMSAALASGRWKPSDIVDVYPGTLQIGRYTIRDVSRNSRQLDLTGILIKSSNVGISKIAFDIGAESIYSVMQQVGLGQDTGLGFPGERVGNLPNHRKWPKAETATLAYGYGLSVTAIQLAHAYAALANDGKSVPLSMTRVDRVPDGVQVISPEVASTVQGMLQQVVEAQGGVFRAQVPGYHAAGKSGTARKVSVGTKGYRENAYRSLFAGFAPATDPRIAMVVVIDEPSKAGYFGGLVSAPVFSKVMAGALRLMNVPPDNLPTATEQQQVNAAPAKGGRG
Excerpt: FIG. 5 is a graph showing compound 26 inhibiting Pseudomonas aeruginosa penicillin binding protein 3 (PBP3).
To assess the affinity of the inhibitors for PBP3 and PBP1a and PBP1b, a Bocillin based assay using PA01 membranes as well as purified proteins is used. Delineation of remarkably active compounds occurs by establishing the MIC90 against Ec, Pa, Ab and Kp as well as static time kill measurement. When siderophore linked pyrazolidinone agents show remarkable activity (i.e. activity equal to or greater than current clinical agents Meropenem or Aztreonam) in these latter secondary assays, they are tested in vivo in a mouse septicemia efficacy model after protein binding measurement and will show potent in vivo activity.

[4] = ATCC25822, E. coli isolate ATCC 25822, CLSI costrol
[5] = E. coli isolate AK-114, KPC-3, TEM-18
[6] = E. coli isolate AR-11, CTX-M-15, OxA-1
[7] = E. coli isolate J4245, Michigan
[8] = ATCC27853, P. aeruginosa isolate ATCC 27853, CLSI control
[9] = P. aeruginosa isolate AR-229, OXA-50
[10] = P. aeruginosa isolate AR-230, VIM-2
[11] = P. aeruginosa isolate AR-231, KPC-5
[12] = P. aeruginosa isolate AR-232, OXA-50
[13] = P. aeruginosa isolate AR-245, VIM
[14] = P. aeruginosa isolate AR-249, VIM
[15] = P. aeruginosa isolate AR-254, VIM
[16] = P. aeruginosa isolate AR-270, OXA-50
[17] = P. aeruginosa isolate J4242, UNC-D

Which results are given for `CC(C)(O/N=C(\C(=O)N[C@H]1CN2CC(C(=O)NCCN3C(=O)c4cc(O)c(O)cc4C3=O)=C(C(=O)O)N2C1=O)c1csc(N)n1)C(=O)O` [Compound 26, (S,Z)-6-(2-(2-aminothiazol-4-yl)-2-(((2-carboxypropan-2-yl)oxy)imino)acetamido)-2-((2-(5,6-dihydroxy-1,3-dioxoisoindolin-2-yl)ethyl)carbamoyl)-5-oxo-6,7-dihydro-1H,5H-pyrazolo[1,2-a]pyrazole-3-carboxylic acid]?
MIC ([1]; K. pneumoniae 7000063, β-lactamase SHV-18, read-out: MIC): 2 µg/mL (≈ 2.91 µM); MIC ([1]; K. pneumoniae KB390 Quale, TEM-30, TEM-1, KPC-2, SHV-12, read-out: MIC): 2 µg/mL (≈ 2.91 µM); MIC ([1]; K. pneumoniae LC40, CTX-M-1 grp(15), TEM (164S), read-out: MIC): 16 µg/mL (≈ 23.3 µM); MIC ([1]; K. pneumoniae LC56, CTX-M-1 grp(15), read-out: MIC): 0.5 µg/mL (≈ 0.728 µM); MIC ([1]; K. pneumoniae LC102, SHV-1 (WT + 238S), read-out: MIC): 1 µg/mL; MIC ([1]; K. pneumoniae LC121, SHV-1 (WT + 238S + 240K), read-out: MIC): 4 µg/mL; MIC ([1]; K. pneumoniae Rush23, CTX-M-9 group, read-out: MIC): 2 µg/mL (≈ 2.91 µM); MIC ([1]; K. pneumoniae VA-368, KPC-2, TEM-1, SHV-5, SHV-68): 0.25 µg/mL (≈ 0.364 µM); MIC ([1]; K. pneumoniae VA-384, KPC-2, TEM-1, SHV-11, SHV-12, SHV-14): 8 µg/mL (≈ 11.7 µM); MIC ([1]; K. pneumoniae VA-398, KPC-3, TEM-1, SHV-11, SHV-12, SHV-27): 8 µg/mL (≈ 11.7 µM); MIC ([2]; BAA202, E. coli BAA-202, SHV-1): 4 µg/mL (≈ 5.83 µM); MIC ([2]; E. coli 35218, TEM-1): 0.125 µg/mL (≈ 0.182 µM); MIC ([2]; E. coli LC4, TEM, SHV-12): 16 µg/mL (≈ 23.3 µM); MIC ([2]; E. coli LC12, CTX-M-1 grp(15)): > 128 µg/mL; MIC ([2]; E. coli LC33, CTX-M-9 group): 1 µg/mL (≈ 1.46 µM); MIC ([2]; E. coli LC38, CTX-M-1 grp(15), PB AmpC (ACT/MIR)): 0.25 µg/mL (≈ 0.364 µM); MIC ([2]; E. coli LC41, TEM (238S), PB AmpC (ACT/MIR), CTX-M-1 grp(15)): 16 µg/mL (≈ 23.3 µM); MIC ([2]; E. coli LC77, TEM, KPC): 0.5 µg/mL (≈ 0.728 µM); MIC ([2]; E. coli LC81, SHV (238S + 240K)): 16 µg/mL; MIC ([2]; E. coli LC98, CMY (group II)): 4 µg/mL (≈ 5.83 µM); MIC ([2]; E. coli LC109, CTX-M-9 group, CMY (group II)): 0.25 µg/mL (≈ 0.364 µM); MIC ([2]; E. coli LC111, TEM (164S)): 1 µg/mL (≈ 1.46 µM); MIC ([2]; E. coli LC136, SHV (WT + 238S)): 0.125 µg/mL; MIC ([2]; E. coli Rush24, CMY (group II)): 8 µg/mL (≈ 11.7 µM); MIC (E. coli; [4]): 2 µg/mL (≈ 2.91 µM); MIC (E. coli; E. coli isolate AA-118, NDM): 4 µg/mL (≈ 5.83 µM); MIC (E. coli; E. coli isolate AA-119, NDM): 4 µg/mL (≈ 5.83 µM); MIC (E. coli; E. coli isolate AA-128, NDM): 4 µg/mL (≈ 5.83 µM); MIC (E. coli; [5]): 0.5 µg/mL (≈ 0.728 µM); MIC (E. coli; E. coli isolate AR-1, KPC-3): 1 µg/mL (≈ 1.46 µM); MIC (E. coli; [6]): 0.5 µg/mL (≈ 0.728 µM); MIC (E. coli; E. coli isolate AR-137, NDM-6): 4 µg/mL (≈ 5.83 µM); MIC (E. coli; E. coli isolate AR-145, NDM): > 64 µg/mL; MIC (E. coli; E. coli isolate J4244, MN): 2 µg/mL (≈ 2.91 µM); MIC (E. coli; [7]): 0.25 µg/mL (≈ 0.364 µM); MIC (Pseudomonas aeruginosa; [8]): 0.25 µg/mL (≈ 0.364 µM); MIC (Pseudomonas aeruginosa; [9]): 0.25 µg/mL (≈ 0.364 µM); MIC (Pseudomonas aeruginosa; [10]): 1 µg/mL (≈ 1.46 µM); MIC (Pseudomonas aeruginosa; [11]): 0.5 µg/mL (≈ 0.728 µM); MIC (Pseudomonas aeruginosa; [12]): 0.5 µg/mL (≈ 0.728 µM); MIC (Pseudomonas aeruginosa; [13]): 0.5 µg/mL (≈ 0.728 µM); MIC (Pseudomonas aeruginosa; [14]): 1 µg/mL (≈ 1.46 µM); MIC (Pseudomonas aeruginosa; P. aeruginosa isolate AR-252): 1 µg/mL (≈ 1.46 µM); MIC (Pseudomonas aeruginosa; [15]): 2 µg/mL (≈ 2.91 µM); MIC (Pseudomonas aeruginosa; [16]): 0.25 µg/mL (≈ 0.364 µM); MIC (Pseudomonas aeruginosa; [17]): 0.5 µg/mL (≈ 0.728 µM); IC50 [3]: 2500 ± 500 nM

What does the source list for `CC(C)(O/N=C(\C(=O)N[C@H]1CN2CC(C(=O)NCCN3C(=O)c4cc(O)c(O)cc4C3=O)=C(C(=O)O)N2C1=O)c1nc(N)sc1Cl)C(=O)O` [Compound 42, (S,Z)-6-(2-(2-amino-5-chlorothiazol-4-yl)-2-(((2-carboxypropan-2-yl)oxy)imino)acetamido)-2-((2-(5,6-dihydroxy-1,3-dioxoisoindolin-2-yl)ethyl)carbamoyl)-5-oxo-6,7-dihydro-1H,5H-pyrazolo[1,2-a]pyrazole-3-carboxylic acid]?
MIC (E. coli; [4]): > 64 µg/mL; MIC (E. coli; E. coli isolate AA-118, NDM): > 64 µg/mL; MIC (E. coli; E. coli isolate AA-119, NDM): > 64 µg/mL; MIC (E. coli; E. coli isolate AA-128, NDM): > 64 µg/mL; MIC (E. coli; [5]): 2 µg/mL (≈ 2.77 µM); MIC (E. coli; E. coli isolate AR-1, KPC-3): > 64 µg/mL; MIC (E. coli; [6]): 4 µg/mL (≈ 5.55 µM); MIC (E. coli; E. coli isolate AR-137, NDM-6): > 64 µg/mL; MIC (E. coli; E. coli isolate AR-145, NDM): > 64 µg/mL; MIC (E. coli; E. coli isolate J4244, MN): > 64 µg/mL; MIC (E. coli; [7]): > 64 µg/mL; MIC (Pseudomonas aeruginosa; [8]): 0.5 µg/mL (≈ 0.693 µM); MIC (Pseudomonas aeruginosa; [9]): 0.5 µg/mL (≈ 0.693 µM); MIC (Pseudomonas aeruginosa; [10]): 1 µg/mL (≈ 1.39 µM); MIC (Pseudomonas aeruginosa; [11]): 1 µg/mL (≈ 1.39 µM); MIC (Pseudomonas aeruginosa; [12]): 0.5 µg/mL (≈ 0.693 µM); MIC (Pseudomonas aeruginosa; [13]): 0.5 µg/mL (≈ 0.693 µM); MIC (Pseudomonas aeruginosa; [14]): 1 µg/mL (≈ 1.39 µM); MIC (Pseudomonas aeruginosa; P. aeruginosa isolate AR-252): 1 µg/mL (≈ 1.39 µM); MIC (Pseudomonas aeruginosa; [15]): 2 µg/mL (≈ 2.77 µM); MIC (Pseudomonas aeruginosa; [16]): 0.25 µg/mL (≈ 0.347 µM); MIC (Pseudomonas aeruginosa; [17]): 0.5 µg/mL (≈ 0.693 µM)

`C[C@@H](O)[C@H]1C(=O)N2C(C(=O)O)=C(S[C@@H]3CN[C@H](C(=O)N(C)C)C3)[C@H](C)[C@H]12` [Meropenem] was tested. Which MIC (E. coli; [4]) did it give?
Its MIC is no more than 0.125 µg/mL.

What about the MIC (E. coli; E. coli isolate AA-118, NDM) of the same compound?
The MIC was greater than 64 µg/mL.

What about the MIC (E. coli; E. coli isolate AA-119, NDM) of the same compound?
The MIC was 64 µg/mL (≈ 167 µM).

What about the MIC (E. coli; E. coli isolate AA-128, NDM) of the same compound?
The MIC was 64 µg/mL (≈ 167 µM).

What about the MIC (E. coli; [5]) of the same compound?
Its MIC is 4 µg/mL (≈ 10.4 µM).

And the MIC (E. coli; E. coli isolate AR-1, KPC-3)?
The MIC was 4 µg/mL (≈ 10.4 µM).

And the MIC (E. coli; [6])?
The MIC was no more than 0.125 µg/mL.

And the MIC (E. coli; E. coli isolate AR-137, NDM-6)?
Its MIC is greater than 64 µg/mL.

What about the MIC (E. coli; E. coli isolate AR-145, NDM) of the same compound?
Its MIC is greater than 64 µg/mL.

And the MIC (E. coli; E. coli isolate J4244, MN)?
The MIC was no more than 0.125 µg/mL.

And the MIC (E. coli; [7])?
The MIC was no more than 0.125 µg/mL.

What about the MIC (Pseudomonas aeruginosa; [8]) of the same compound?
The MIC was 1 µg/mL (≈ 2.61 µM).

And the MIC (Pseudomonas aeruginosa; [9])?
The MIC was 64 µg/mL (≈ 167 µM).

What about the MIC (Pseudomonas aeruginosa; [10]) of the same compound?
The MIC was greater than 64 µg/mL.

And the MIC (Pseudomonas aeruginosa; [11])?
Its MIC is greater than 64 µg/mL.

What about the MIC (Pseudomonas aeruginosa; [12]) of the same compound?
Its MIC is 8 µg/mL (≈ 20.9 µM).

And the MIC (Pseudomonas aeruginosa; [13])?
Its MIC is 32 µg/mL (≈ 83.4 µM).

And the MIC (Pseudomonas aeruginosa; [14])?
Its MIC is greater than 64 µg/mL.

And the MIC (Pseudomonas aeruginosa; P. aeruginosa isolate AR-252)?
The MIC was 64 µg/mL (≈ 167 µM).

And the MIC (Pseudomonas aeruginosa; [15])?
The MIC was greater than 64 µg/mL.

And the MIC (Pseudomonas aeruginosa; [16])?
The MIC was 4 µg/mL (≈ 10.4 µM).

What about the MIC (Pseudomonas aeruginosa; [17]) of the same compound?
Its MIC is 16 µg/mL (≈ 41.7 µM).

Reference: patent US11746111B2, “Siderophore conjugated pyrazolidinones, and analogues thereof” (YALE UNIVERSITY, priority 2018, dated 2023)
